Data reported in ChEMBL document CHEMBL5620347, “Discovery of thiohydantoin based antagonists of androgen receptor with efficient degradation for the treatment of prostate cancer” (Eur J Med Chem, 2023).

Columns and labels:
[1] = AUC (0 to infinity) in Sprague-Dawley rat at 5 mg/kg, iv measured upto 1440 mins by LC-MS/MS analysis; format: ADME, organism-based; conditions: in vivo
[2] = Half life in Sprague-Dawley rat at 5 mg/kg, iv measured upto 1440 mins by LC-MS/MS analysis; format: ADME, organism-based; conditions: in vivo
[3] = Volume of distribution at steady state in Sprague-Dawley rat at 5 mg/kg, iv measured upto 1440 mins by LC-MS/MS analysis; format: ADME, organism-based; conditions: in vivo, read-out: Vdss
[4] = Clearance in Sprague-Dawley rat at 5 mg/kg, iv measured upto 1440 mins by LC-MS/MS analysis; format: ADME, organism-based; conditions: in vivo
[5] = Cmax in Sprague-Dawley rat at 20 mg/kg, po measured upto 1440 mins by LC-MS/MS analysis; format: ADME, organism-based; conditions: in vivo
[6] = AUC (0 to infinity) in Sprague-Dawley rat at 20 mg/kg, po measured upto 1440 mins by LC-MS/MS analysis; format: ADME, organism-based; conditions: in vivo, 24 h
[7] = Half life in Sprague-Dawley rat at 20 mg/kg, po measured upto 1440 mins by LC-MS/MS analysis; format: ADME, organism-based; conditions: in vivo
[8] = Volume of distribution at steady state in Sprague-Dawley rat at 20 mg/kg, po measured upto 1440 mins by LC-MS/MS analysis; format: ADME, organism-based; conditions: in vivo, 24 h
[9] = Clearance in Sprague-Dawley rat at 20 mg/kg, po measured upto 1440 mins by LC-MS/MS analysis; format: ADME, organism-based; conditions: in vivo, 24 h
[10] = Oral bioavailability in Sprague-Dawley rat at 20 mg/kg measured upto 1440 mins by LC-MS/MS analysis; format: ADME, organism-based; conditions: in vivo
[11] = AUC (0 to infinity) in Sprague-Dawley rat at 20 mg/kg, ip measured upto 1440 mins by LC-MS/MS analysis; format: ADME, organism-based; conditions: in vivo
[12] = Volume of distribution at steady state in Sprague-Dawley rat at 20 mg/kg, ip measured upto 1440 mins by LC-MS/MS analysis; format: ADME, organism-based; conditions: in vivo, 24 h
[13] = Clearance in Sprague-Dawley rat at 20 mg/kg, ip measured upto 1440 mins by LC-MS/MS analysis; format: ADME, organism-based; conditions: in vivo
[14] = Bioavailability in Sprague-Dawley rat at 20 mg/kg, ip measured upto 1440 mins by LC-MS/MS analysis; format: ADME, organism-based; conditions: in vivo
[15] = Toxicity in BALB/c nude mouse xenografted with human LNCaP cells assessed as reduction in body weight at 30 mg/kg, ip measured every 2 days for 28 days; format: organism-based; conditions: in vivo, 672 h, time 28 day
[16] = Toxicity in BALB/c nude mouse xenografted with human 22Rv1 cells assessed as reduction in body weight at 30 mg/kg, ip measured every 2 days for 28 days; format: organism-based, CWR22R; conditions: in vivo, 672 h, time 28 day
[17] = Toxicity in BALB/c mouse assessed as appearance of lesions in lung at 30 mg/kg, ip measured after 3 days by H and E staining based analysis; format: organism-based; conditions: in vivo, 72 h, time 3 day
[18] = Toxicity in BALB/c mouse assessed as appearance of lesions in liver at 30 mg/kg, ip measured after 3 days by H and E staining based analysis; format: organism-based; conditions: in vivo, 72 h, time 3 day
[19] = Toxicity in BALB/c mouse assessed as appearance of lesions in spleen at 30 mg/kg, ip measured after 3 days by H and E staining based analysis; format: organism-based; conditions: in vivo, 72 h, time 3 day
[20] = Toxicity in BALB/c mouse assessed as appearance of lesions in kidney at 30 mg/kg, ip measured after 3 days by H and E staining based analysis; format: organism-based; conditions: in vivo, 72 h, time 3 day
[21] = Toxicity in BALB/c mouse assessed as appearance of lesions in heart at 30 mg/kg, ip measured after 3 days by H and E staining based analysis; format: organism-based; conditions: in vivo, 72 h, time 3 day
[22] = Toxicity in BALB/c mouse assessed as effect on serum ALT level at 30 mg/kg, ip measured after 3 days by biochemical analysis; format: organism-based; conditions: in vivo, 72 h, time 3 day
[23] = Toxicity in BALB/c mouse assessed as effect on serum AST level at 30 mg/kg, ip measured after 3 days by biochemical analysis; format: organism-based; conditions: in vivo, 72 h, time 3 day
[24] = Toxicity in BALB/c mouse assessed as effect on BUN level at 30 mg/kg, ip measured after 3 days by biochemical analysis; format: organism-based; conditions: in vivo, 72 h, time 3 day
[25] = Toxicity in BALB/c mouse assessed as effect on creatinine level at 30 mg/kg, ip measured after 3 days by biochemical analysis; format: organism-based; conditions: in vivo, 72 h, time 3 day
[26] = Toxicity in BALB/c mouse assessed as effect on serum uric acid level at 30 mg/kg, ip measured after 3 days by biochemical analysis; format: organism-based; conditions: in vivo, 72 h, time 3 day
[27] = tested on: LNCaP; test: Antitumor activity against human LNCaP cells xenografted in BALB/c nude mouse assessed as tumor growth inhibition at 30 mg/kg, ip measured every 2 days for 28 days relative to control; conditions: 672 h, read-out: TGI
[28] = tested on: CWR22R; test: Antitumor activity against human 22Rv1 cells xenografted in BALB/c nude mouse assessed as tumor growth inhibition at 30 mg/kg, ip measured every 2 days for 28 days relative to control; conditions: 22Rv1, 672 h, read-out: TGI
[29] = tested on: LNCaP; test: cells; conditions: Homo sapiens, 72 h
Description: Cytotoxicity against androgen receptor dependent human LNCaP cells assessed as inhibition of cell growth incubated for 72 hrs by MTT assay

[30] = tested on: DU-145; test: cells; conditions: Homo sapiens, DU-145, 72 h
Description: Cytotoxicity against androgen receptor independent human DU-145 cells assessed as inhibition of cell growth incubated for 72 hrs by MTT assay

Question: Which AUC(0-inf) [1] does the source give for `N#Cc1ccc(N2C(=O)CN(CCCN3CCCc4ccccc43)C2=S)cc1C(F)(F)F` here?
Answer: 3500 ng·h/mL

Question: And the half-life [2]?
Answer: 5.02 h

Question: And the Vd [3]?
Answer: 6.9 L/kg

Question: What about the clearance [4] of the same compound?
Answer: 15.7 mL/min/kg

Question: And the Cmax [5]?
Answer: 92.1 ng/mL

Question: And the AUC [6]?
Answer: 805.18 ng·h/mL

Question: And the half-life [7]?
Answer: 3.06 h

Question: What about the Vdss [8] of the same compound?
Answer: 16.72 L/kg

Question: What about the CL [9] of the same compound?
Answer: 84.8 mL/min/kg

Question: And the bioavailability [10]?
Answer: 5.74%

Question: And the AUC(0-inf) [11]?
Answer: 9160 ng·h/mL

Question: What about the Vdss [12] of the same compound?
Answer: 8.77 L/kg

Question: And the CL/F [13]?
Answer: 60.2 mL/min/kg

Question: What about the bioavailability [14] of the same compound?
Answer: 67.2%

Question: What about the Activity [15] of the same compound?
Answer: Non-Toxic

Question: And the Activity [16]?
Answer: Non-Toxic

Question: What about the Activity [17] of the same compound?
Answer: Non-Toxic

Question: What about the Activity [18] of the same compound?
Answer: Non-Toxic

Question: What about the Activity [19] of the same compound?
Answer: Non-Toxic

Question: What about the Activity [20] of the same compound?
Answer: Non-Toxic

Question: What about the Activity [21] of the same compound?
Answer: Non-Toxic

Question: And the Activity [22]?
Answer: Non-Toxic

Question: And the Activity [23]?
Answer: Non-Toxic

Question: What about the Activity [24] of the same compound?
Answer: Non-Toxic

Question: What about the Activity [25] of the same compound?
Answer: Non-Toxic

Question: What about the Activity [26] of the same compound?
Answer: Non-Toxic

Question: With `CNC(=O)c1ccc(N2C(=S)N(c3ccc(C#N)c(C(F)(F)F)c3)C(=O)C2(C)C)cc1F` [ENZALUTAMIDE] as the compound, how does the inhibition in vivo at 30 mg/kg [27] read?
Answer: 41.5%

Question: What about the inhibition in vivo at 30 mg/kg [28] of the same compound?
Answer: 39.9%

Question: And the IC50 [29]?
Answer: 13.9 µM

Question: What about the IC50 [30] of the same compound?
Answer: > 50 µM
